In paper PMC8330735 (Journal of Enzyme Inhibition and Medicinal Chemistry, 2021):

How the values were obtained:
[1] = test system: carrageenan-induced rat paw oedema; assay: Carrageenan-induced rat paw oedema test; format: in vivo; details: compounds and celecoxib 50 mg/kg, ibuprofen and indomethacin 20 mg/kg; for Mean oedema thickness 1h: 1 h after carrageenan; for Mean oedema thickness 1h / Mean oedema thickness 2h / Mean oedema thickness 3h / Mean oedema thickness 4h / Mean oedema thickness 5h / Mean oedema thickness 24h / Mean oedema thickness 0h: mean ± SEM, n = 5; for Mean oedema thickness 2h: 2 h after carrageenan; for Mean oedema thickness 3h: 3 h after carrageenan; for Mean oedema thickness 4h: 4 h after carrageenan; for Mean oedema thickness 5h: 5 h after carrageenan; for Mean oedema thickness 24h: 24 h after carrageenan; for Mean oedema thickness 0h: before carrageenan (0 h); for Average oedema inhibition%: from area under the curve of all time points
Description: The rats were divided into nine groups (n = 5/group). All tested compounds were suspended in 1% Tween-80. Group 1, controls, were given the vehicle (1% Tween80, 10 ml/kg). […] The rats were given the drugs 1 h before the injection of carrageenan solution (1% in 0.9% NaCl, 0.1 ml) (Sigma Aldrich, USA) in the sub-planter tissue of the right hind paw. The paw thickness (mm) was measured using a calliper before (0 h) and after carrageenan injection at 1, 2, 3, 4, 5 and 24 h. The inhibition of oedema thickness was calculated using the following formula (control– drug/control) × 100.

[2] = test system: acetic acid-induced writhing in mice; assay: Acetic acid induced writhing test; format: in vivo; details: 50 mg/kg p.o.; for Number of writhes: 1 h prior acetic acid i.p., within 30 min
Description: The number of writhes, manifested as extension of hind legs, constriction of abdomen, or turning of trunk was recorded within 30 min.

HCT116 cells = assay: MTS cell viability assay HCT116; format: cell-based; details: Homo sapiens, HCT-116, 48 h, cell line scarcely expressing COX-2
Description: (§1) Human colorectal cancer cell lines, HCT116 and HT29, and RAW 264.7 macrophages were obtained from ATCC (Manassas, VA). HCA7 colorectal cancer cell line was obtained from Sigma. HT29 and HCT116 cells were cultured in McCoy's 5 A medium (Sigma Aldrich, St. Louis, MO) containing 10% heat-inactivated foetal bovine serum (HI-FBS) (Gibco, USA), 100 μg/mL streptomycin (Invitrogen, USA), and […] penicillin (Invitrogen, USA)[40]. HCA7 and RAW 264.7 cells were cultured in Dulbecco's minimal essential media (DMEM, Invitrogen) containing 10% HI-FBS, sodium pyruvate (1 mM), penicillin ([…]), and streptomycin (100 mg/m)[41]^,[42].
(§2) Cells were cultured in 96‐well plates for 48 h and then treated with serum-free media containing different concentrations of the tested compounds (12.5, 25, 50, 100 and 150 µM). After 48 h., MTS reagent (Promega) was added as directed by the manufacturer, and then, the absorbance was measured at 495 nm. The absorbance is proportional to the number of viable cells. IC50 was calculated from the dose-response curves as described previously[45] using GraphPad Prism 8 software (GraphPad Software, San Diego, CA).

HT29 cells = assay: MTS cell viability assay HT29; format: cell-based; details: Homo sapiens, HT-29, 48 h, cell line moderately expressing COX-2
Description: as §1, §2

HCA7 cells = assay: MTS cell viability assay HCA7; format: cell-based; details: Homo sapiens, HCA-7, 48 h, cell line highly expressing COX-2
Description: as §1, §2

[3] = test system: stomach ulceration in rats; assay: Gastric acute ulcerogenic activity; details: rat, n = 5; for Ulcer Index (UI): UI = UN + US + UP×10^−1
Description: The rats from the previous experiment were fasted for 12 h., followed by the administration of additional doses of the selected compounds or the two references for two consecutive days. Six hrs after the last treatment, the animals were sacrificed, and their stomachs were removed, washed with saline solution (0.9%) and examined for ulceration using a magnifying lens. The ulcer scores were estimated according to the method prescribed by Kulkarni and as detailed in our previous studies[36–38]. The following scores were individually assigned to each lesion: normal coloured stomach, 0; red colouration, 0.5; spot ulcers, 1; haemorrhagic streaks, 1.5; ulcer >3 but <5 mm, 2; and ulcers >5 mm, 3.

ovine COX-1 = target: T1, ovine COX-1 (Ovis aries, UniProt P05979); assay: In vitro COX-1 inhibitory assay (colorimetric Cayman kit)
T1 sequence (P05979 25-600): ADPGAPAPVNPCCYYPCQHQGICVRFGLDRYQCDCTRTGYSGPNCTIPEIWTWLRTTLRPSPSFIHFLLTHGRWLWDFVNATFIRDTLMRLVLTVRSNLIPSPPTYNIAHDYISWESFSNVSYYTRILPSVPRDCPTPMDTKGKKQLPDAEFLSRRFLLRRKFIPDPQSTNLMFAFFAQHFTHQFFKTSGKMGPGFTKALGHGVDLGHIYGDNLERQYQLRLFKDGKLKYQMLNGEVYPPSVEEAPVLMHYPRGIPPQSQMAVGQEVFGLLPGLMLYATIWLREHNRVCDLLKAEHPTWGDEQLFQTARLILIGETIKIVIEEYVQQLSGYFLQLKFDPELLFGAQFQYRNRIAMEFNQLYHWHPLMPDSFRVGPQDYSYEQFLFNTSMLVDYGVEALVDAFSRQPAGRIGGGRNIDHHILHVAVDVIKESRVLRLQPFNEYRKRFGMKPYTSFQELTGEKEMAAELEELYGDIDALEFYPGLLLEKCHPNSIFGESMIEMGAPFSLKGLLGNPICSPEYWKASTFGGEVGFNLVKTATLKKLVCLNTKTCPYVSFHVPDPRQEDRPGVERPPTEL
Description: (§3) All the newly synthesised compounds were tested for their ability to inhibit COX-1 and COX-2 enzymes using a screening assay method.

human recombinant COX-2 = target: T2, human recombinant COX-2 (Homo sapiens, UniProt P35354); assay: In vitro COX-2 inhibitory assay (colorimetric Cayman kit); details: for Selectivity Index (SI): COX-1 IC50/COX-2 IC50
T2 sequence (P35354 18-604): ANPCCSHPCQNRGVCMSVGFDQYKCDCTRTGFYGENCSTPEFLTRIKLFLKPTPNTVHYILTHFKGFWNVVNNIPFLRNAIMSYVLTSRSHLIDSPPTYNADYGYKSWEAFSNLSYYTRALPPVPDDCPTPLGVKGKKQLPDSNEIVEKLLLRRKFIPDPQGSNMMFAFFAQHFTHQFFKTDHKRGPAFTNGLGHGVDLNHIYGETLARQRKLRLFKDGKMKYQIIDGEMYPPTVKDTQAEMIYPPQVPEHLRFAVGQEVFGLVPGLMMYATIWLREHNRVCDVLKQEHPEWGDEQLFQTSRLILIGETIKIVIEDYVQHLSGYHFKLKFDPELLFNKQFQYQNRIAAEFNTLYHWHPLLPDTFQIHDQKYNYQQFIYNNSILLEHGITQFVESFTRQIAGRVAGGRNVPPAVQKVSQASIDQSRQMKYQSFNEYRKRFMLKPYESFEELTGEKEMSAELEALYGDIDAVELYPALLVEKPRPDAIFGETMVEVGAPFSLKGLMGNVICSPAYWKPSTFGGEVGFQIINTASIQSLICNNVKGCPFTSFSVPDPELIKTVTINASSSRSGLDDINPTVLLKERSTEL
Description: as §3

| Compound | Mean oedema thickness 1h [1] [mm] | Mean oedema thickness 2h [1] [mm] | Mean oedema thickness 3h [1] [mm] | Mean oedema thickness 4h [1] [mm] | Mean oedema thickness 5h [1] [mm] | Mean oedema thickness 24h [1] [mm] | Mean oedema thickness 0h [1] [mm] | Average oedema inhibition% [1] [%] | Number of writhes [2] | IC50 (HCT116 cells) [µM] | IC50 (HT29 cells) [µM] | IC50 (HCA7 cells) [µM] | melting point [°C] | Average Ulcer number [3] | Lesion Incidence (%) [3] [%] | Number of rats with ulcer [3] | Ulcer Index (UI) [3] | IC50 (ovine COX-1) [µM] | IC50 (human recombinant COX-2) [µM] | Selectivity Index (SI) (human recombinant COX-2) | also measured |
| --- | --- | --- | --- | --- | --- | --- | --- | --- | --- | --- | --- | --- | --- | --- | --- | --- | --- | --- | --- | --- | --- |
| NNC(=O)CSc1nc2ccccc2c(=O)n1NC(=O)Cc1ccccc1 [13b, N-(2-((2-hydrazinyl-2-oxoethyl)thio)-4-oxoquinazolin-3(4H)-yl)-2-phenylacetamide] | 2.26 ± 0.30 | 2.58 ± 0.41 | 2.67 ± 0.15 | 1.97 ± 0.29 | 1.61 ± 0.23 | 0.45 ± 0.14 | 0.00 ± 0.00 | 45.49 | no writhes | > 150 | > 150 | > 150 | 210 to 215 | 0.4 | 40 | 2 | 4.8 | 16.92 ± 0.16 | 0.045 | 373.77 | Selectivity Index (SI) (human recombinant COX-2; listed as 13 b): 373 |
| CC(C)Cc1ccc(C(C)C(=O)NN2C(=O)c3ccccc3N(C)C2c2ccc([N+](=O)[O-])cc2)cc1 (stereo not drawn) [7c, 2-(4-Isobutylphenyl)-N-(1-methyl-2-(4-nitrophenyl)-4-oxo-1,4-dihydroquinazolin-3(2H)-yl) propenamide] | 1.79 ± 0.04 | 2.21 ± 0.35 | 1.90 ± 0.44 | 1.62 ± 0.26 | 1.55 ± 0.29 | 0.06 ± 0.04 | 0.00 ± 0.00 | 45.37 | 11.33 writhes | > 150 | 13.4 ± 0.17 | > 150 | 111 to 116 | 1 | 60 | 3 | 8 | 14.73 ± 0.13 | 0.037 | 398.11 | Reduction in the pain response (writhes number) [2]: 78% |
